From patent US9353081B2, “Bicyclic dihydroquinoline-2-one derivatives” (Hoffmann-La Roche Inc., priority 2011, dated 2016)

Legend:
[1] = system: rat model of chronic kidney disease; conditions: cited from earlier work; for plasma aldosterone: FAD286: 4 weeks of treatment, spironolactone: 4 and 8 weeks of treatment; for angiotensin II and salt-stimulated PAI-1 mRNA expression in the aorta and the heart / cardiac and aortic medial hypertrophy / renal effects of angiotensin II and high salt (albuminuria, azotemia, renovascular hypertrophy, glomerular injury, PAI-1 and osteopontin mRNA, tubulointerstitial fibrosis): rat CKD model
[2] = system: rats with experimental heart failure; conditions: cited from earlier work
human CYP11B1 = human CYP11B1 (Homo sapiens (Human), UniProt P15538); experiment: G-402 cellular enzyme assay, human CYP11B1 (cortisol release, HTRF); type: cell-based; conditions: G-402 cells expressing human CYP11B1; 1 μM Deoxycortisol
From the text: (§1) Specifically we developed stable G-402 cells expressing ectopically human CYP11B1, human CYP11B2, human CYP11A1, cynomolgus CYP11B1 or cynomolgus CYP11B2 enzyme activity.
(§2) The expression plasmids contains the ORF for either human/cyno CYP11B1 or CYP11B2 under the control of a suitable promoter (CMV-promoter) and a suitable resistance marker (neomycin). Using standard techniques the expression plasmid is transfected into G-402 cells and these cells are then selected for expressing the given resistance markers. Individual cell-clones are then selected and assessed for displaying the desired enzymatic activity using 11-Deoxycorticosterone (Cyp11B2) or 11-Deoxycortisol (Cyp11B1) as a substrate.
(§3) For assaying enzymatic activity, cells were plated onto 96 well plates and incubated for 16 h. An aliquot of the supernatant is then transferred and analyzed for the concentration of the expected product (Aldosterone for CYP11B2; Cortisol for CYP11B1). The concentrations of these steroids can be determined using HTRF assays from CisBio analyzing either Aldosterone or Cortisol.
(§4) Inhibition of the release of produced steroids can be used as a measure of the respective enzyme inhibition by test compounds added during the cellular enzyme assay. The dose dependent inhibition of enzymatic activity by a compound is calculated by means of plotting added inhibitor concentrations x-axes) vs. measured steroid/product level (y-axes). The inhibition is then calculated by fitting the following 4-parameter sigmoidal function (Morgan-Mercer-Flodin (MMF) model) to the raw data points using the least squares method:
(§5) [formula] wherein, A is the maximum y value, B is the EC50 factor determined using XLFit, C is the minimum y value and D is the slope value.
(§6) EC50 values for compounds claimed herein were tested with the G402-based assay system described. Cyp11B2 enzyme activity was tested in presence of 1 μM Deoxycorticosterone and variable amounts of inhibitors; Cyp11B1 enzyme activity was tested in presence of 1 μM Deoxycortisol and variable amounts of inhibitors.

human CYP11B2 = human CYP11B2 (Homo sapiens (Human), UniProt P19099); experiment: G-402 cellular enzyme assay, human CYP11B2 (aldosterone release, HTRF); type: cell-based; conditions: G-402 cells expressing human CYP11B2; 1 μM Deoxycorticosterone
From the text: as §1, §2, §3, §4, §5, §6

[3] = system: patients with primary aldosteronism; conditions: cited from earlier work

Sequence of human CYP11B2 (P19099 25-503): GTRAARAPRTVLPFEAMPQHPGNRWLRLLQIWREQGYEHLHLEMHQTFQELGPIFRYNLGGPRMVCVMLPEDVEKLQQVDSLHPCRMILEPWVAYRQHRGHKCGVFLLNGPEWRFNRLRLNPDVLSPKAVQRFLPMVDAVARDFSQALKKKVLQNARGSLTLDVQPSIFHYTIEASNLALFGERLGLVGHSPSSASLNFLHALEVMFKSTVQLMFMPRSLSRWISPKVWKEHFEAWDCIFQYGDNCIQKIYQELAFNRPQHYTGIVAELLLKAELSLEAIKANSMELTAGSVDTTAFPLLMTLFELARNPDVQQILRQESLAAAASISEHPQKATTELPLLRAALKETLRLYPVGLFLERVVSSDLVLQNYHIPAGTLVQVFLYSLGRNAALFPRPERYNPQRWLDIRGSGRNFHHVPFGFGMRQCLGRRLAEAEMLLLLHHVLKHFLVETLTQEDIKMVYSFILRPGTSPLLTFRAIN
Sequence of human CYP11B1 (P15538 25-503): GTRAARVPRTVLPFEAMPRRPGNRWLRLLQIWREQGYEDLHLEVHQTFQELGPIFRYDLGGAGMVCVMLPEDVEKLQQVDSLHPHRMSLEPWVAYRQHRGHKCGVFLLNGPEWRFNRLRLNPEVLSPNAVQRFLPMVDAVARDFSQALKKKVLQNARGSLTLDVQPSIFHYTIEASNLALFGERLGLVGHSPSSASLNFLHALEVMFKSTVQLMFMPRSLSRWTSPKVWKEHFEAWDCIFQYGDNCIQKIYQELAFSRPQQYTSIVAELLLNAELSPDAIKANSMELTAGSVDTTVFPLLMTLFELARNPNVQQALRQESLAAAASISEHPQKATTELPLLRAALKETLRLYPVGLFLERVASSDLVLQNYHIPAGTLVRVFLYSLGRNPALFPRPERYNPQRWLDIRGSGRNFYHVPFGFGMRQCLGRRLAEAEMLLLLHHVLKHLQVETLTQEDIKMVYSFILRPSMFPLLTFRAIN

Row | SMILES | EC50 (human CYP11B1) [nM] | EC50 (human CYP11B2) [nM] | further results
1 | CC(=O)S[C@@H]1CC2=CC(=O)CC[C@]2(C)[C@H]2CC[C@@]3(C)[C@@H](CC[C@@]34CCC(=O)O4)[C@H]12 [spironolactone] | – | – | plasma aldosterone [1]: increased; angiotensin II and salt-stimulated PAI-1 mRNA expression in the aorta and the heart [1]: enhanced; cardiac and aortic medial hypertrophy [1]: attenuated; renal effects of angiotensin II and high salt (albuminuria, azotemia, renovascular hypertrophy, glomerular injury, PAI-1 and osteopontin mRNA, tubulointerstitial fibrosis) [1]: prevented these renal effects
2 | N#Cc1ccc(C2CCCc3cncn32)cc1 (stereo not drawn) [FAD286] | – | – | blood pressure and cardiovascular function and structure [2]: improved; kidney function and morphology [2]: improve; plasma aldosterone [1]: reduced; angiotensin II and salt-stimulated PAI-1 mRNA expression in the aorta and the heart [1]: not; cardiac and aortic medial hypertrophy [1]: attenuated; renal effects of angiotensin II and high salt (albuminuria, azotemia, renovascular hypertrophy, glomerular injury, PAI-1 and osteopontin mRNA, tubulointerstitial fibrosis) [1]: prevented these renal effects
3 | CC(O)C(=O)NC1CCCc2c(-c3ccc4c(c3)CCC(=O)N4C)cncc21 [Example 15, (2R,S)-2-Hydroxy-N-[(4R,S)-4-(1-methyl-2-oxo-1,2,3,4-tetrahydroquinolin-6-yl)-5,6,7,8-tetrahydroisoquinolin-8-yl]propanamide] | 574 | 77.3 | –
4 | CCS(=O)(=O)NC1CCCc2c(-c3ccc4c(c3)CCC(=O)N4C)cncc21 (racemic) [Example 4, (rac)-N-(4-(1-Methyl-2-oxo-1,2,3,4-tetrahydroquinolin-6-yl)-5,6,7,8-tetrahydroisoquinolin-8-yl)ethanesulfonamide] | 4920 | 97 | –
5 | CCC(=O)NC1CCc2c(-c3cc4c(cc3F)N(C)C(=O)CC4)cncc21 (racemic) [Example 22, (rac)-N-(4-(7-Fluoro-1-methyl-2-oxo-1,2,3,4-tetrahydroquinolin-6-yl)-6,7-dihydro-5H-cyclopenta[c]pyridin-7-yl)propionamide] | 1200 | 10.2 | –
6 | CCS(=O)(=O)NCCN1CCCc2c(-c3ccc4c(c3)CCC(=O)N4C)cncc21 [Example 14, N-(2-(5-(1-Methyl-2-oxo-1,2,3,4-tetrahydroquinolin-6-yl)-3,4-dihydro-1,7-naphthyridin-1(2H)-yl)ethyl)ethanesulfonamide] | 210 | 11 | –
7 | CCC(=O)NC1CCCc2c(-c3cc4c(cc3F)N(C)C(=O)CC4)cncc21 (single isomer, unassigned; (-)) [Example 29, (−)-(S or R)—N-[4-(7-Fluoro-1-methyl-2-oxo-1,2,3,4-tetrahydro-quinolin-6-yl)-5,6,7,8-tetrahydro-isoquinolin-8-yl]-propionamide] | 42600 | 1790 | –
8 | CCC(=O)NC1CCCc2c(-c3ccc4c(c3)CCC(=O)N4C)cncc21 (single isomer, unassigned; (+)) [Example 3, (+)-(S or R)—N-(4-(1-Methyl-2-oxo-1,2,3,4-tetrahydroquinolin-6-yl)-5,6,7,8-tetrahydroisoquinolin-8-yl)propionamide] | 980 | 14 | –
9 | CCS(=O)(=O)NC1CCCc2c(-c3cc4c(cc3Cl)N(C)C(=O)CC4)cncc21 (racemic) [Example 34, (rac)-Ethanesulfonic acid [4-(7-chloro-1-methyl-2-oxo-1,2,3,4-tetrahydro-quinolin-6-yl)-5,6,7,8-tetrahydro-isoquinolin-8-yl]-amide] | 34700 | 386 | –
10 | CCC(=O)NC1CCCc2c(-c3cc(Cl)c4c(c3)CCC(=O)N4C)cncc21 (racemic) [Example 33, (rac)-N-[4-(8-Chloro-1-methyl-2-oxo-1,2,3,4-tetrahydro-quinolin-6-yl)-5,6,7,8-tetrahydro-isoquinolin-8-yl]-propionamide] | 11600 | 79.8 | –
11 | CCC(=O)N[C@@H]1CCCc2c(-c3ccc4c(c3)CCC(=O)N4C)cncc21 [Example 3-1, (+)-(R)—N-(4-(1-Methyl-2-oxo-1,2,3,4-tetrahydroquinolin-6-yl)-5,6,7,8-tetrahydroisoquinolin-8-yl)propionamide] | 980 | 14 | –
12 | CN1C(=O)CCc2cc(-c3cncc4c3CCC[C@H]4NS(=O)(=O)C3CC3)ccc21 [Example 66, Cyclopropanesulfonic acid [(R)-4-(1-methyl-2-oxo-1,2,3,4-tetrahydro-quinolin-6-yl)-5,6,7,8-tetrahydro-isoquinolin-8-yl]-amide] | 319 | 35.5 | –
13 | CCC(=O)N[C@H]1c2cncc(-c3ccc4c(c3)CCC(=O)N4C)c2CC[C@H]1C (single isomer, unassigned) [Example 49, (+)-N-[(7R,8R or 7S,8S)-7-Methyl-4-(1-methyl-2-oxo-1,2,3,4-tetrahydro-quinolin-6-yl)-5,6,7,8-tetrahydro-isoquinolin-8-yl]-propionamide] | 3950 | 44.2 | –
14 | CCC(=O)N[C@@H]1c2cncc(-c3ccc4c(c3)CCC(=O)N4C)c2CC[C@@H]1C (single isomer, unassigned) [Example 46, (−)-N-[(7S,8S or 7R,8R)-7-Methyl-4-(1-methyl-2-oxo-1,2,3,4-tetrahydro-quinolin-6-yl)-5,6,7,8-tetrahydro-isoquinolin-8-yl]-propionamide] | 19300 | 467 | –
15 | CCC(=O)N[C@H]1c2cncc(-c3cc4c(cc3F)N(C)C(=O)CC4)c2CC[C@H]1C (single isomer, unassigned) [Example 48, (+)-N-[(7R,8R or 7S,8S)-4-(7-Fluoro-1-methyl-2-oxo-1,2,3,4-tetrahydro-quinolin-6-yl)-7-methyl-5,6,7,8-tetrahydro-isoquinolin-8-yl]-propionamide] | 2880 | 26.1 | –
16 | CCC(=O)NC1CCc2c(-c3cc4c(cc3F)N(C)C(=O)CC4)cncc21 (single isomer, unassigned; (+)) [Example 24, (+)-(R or S)—N-(4-(7-Fluoro-1-methyl-2-oxo-1,2,3,4-tetrahydroquinolin-6-yl)-6,7-dihydro-5H-cyclopenta[c]pyridin-7-yl)propionamide] | 466 | 3.8 | –
17 | N#Cc1ccc([C@H]2CCc3cncn32)c(F)c1 [LCI699] | – | – | blood pressure [3]: mildly decreased; hypokalemia [3]: corrected; selectivity (effects on the glucocorticoid axis, cortisol synthesis) [3]: poor selectivity; circulating aldosterone levels ([3]; oral): significantly lower
18 | CN1C(=O)CCc2cc(-c3cncc4c3CCCN4CCNC(=O)OC(C)(C)C)ccc21 [Example 11, {2-[5-(1-Methyl-2-oxo-1,2,3,4-tetrahydro-quinolin-6-yl)-3,4-dihydro-2H-[1,7]naphthyridin-1-yl]-ethyl}-carbamic acid tert-butyl ester] | 420 | 23 | –
19 | C[C@@H](O)C(=O)NC1CCCc2c(-c3ccc4c(c3)CCC(=O)N4C)cncc21 (single isomer, unassigned; (-)) [Example 19, (−)-(2R)-2-Hydroxy-N-((4S or 4R)-4-(1-methyl-2-oxo-1,2,3,4-tetrahydroquinolin-6-yl)-5,6,7,8-tetrahydroisoquinolin-8-yl)propanamide] | 13200 | 493 | –
20 | C[C@H](O)C(=O)NC1CCCc2c(-c3ccc4c(c3)CCC(=O)N4C)cncc21 (single isomer, unassigned; (-)) [Example 20, (−)-(2S)-2-hydroxy-N-((4S or 4R)-4-(1-methyl-2-oxo-1,2,3,4-tetrahydroquinolin-6-yl)-5,6,7,8-tetrahydroisoquinolin-8-yl)propanamide] | 25500 | 823 | –
21 | CCC(=O)NC1CCc2c(-c3ccc4c(c3)CCC(=O)N4C)cncc21 (single isomer, unassigned; (+)) [Example 9, (+)-(S or R)—N-(4-(1-Methyl-2-oxo-1,2,3,4-tetrahydroquinolin-6-yl)-6,7-dihydro-5H-cyclopenta[c]pyridin-7-yl)propionamide] | 570 | 13 | –
22 | CCC(=O)NCCN1CCCc2c(-c3ccc4c(c3)CCC(=O)N4C)cncc21 [Example 13, N-{2-[5-(1-Methyl-2-oxo-1,2,3,4-tetrahydro-quinolin-6-yl)-3,4-dihydro-2H-[1,7]naphthyridin-1-yl]-ethyl}-propionamide] | 1810 | 14 | –
23 | CN1C(=O)CCc2cc(-c3cncc4c3CCC[C@H]4NC(=O)c3ncccc3Cl)ccc21 [Example 62, 3-Chloro-pyridine-2-carboxylic acid [(R)-4-(1-methyl-2-oxo-1,2,3,4-tetrahydro-quinolin-6-yl)-5,6,7,8-tetrahydro-isoquinolin-8-yl]-amide] | 558 | 5.3 | –
